Reference: the supplement of paper PMC10307832

What was measured:
Test in all cases: relative viability (nuclei count vs DMSO), 5 days (fraction); higher = more cells survive
[1] = compound: COc1cc(-c2nn([C@H]3CC[C@H](N4CCN(C(C)=O)CC4)CC3)c3ncnc(N)c23)ccc1NC(=O)c1cc2ccccc2n1C + CS(=O)(=O)N1CCN(Cc2cc3nc(-c4cccc5[nH]ncc45)nc(N4CCOCC4)c3s2)CC1 [Pictilisib] (partner 1 µM)
Procedure, shortened: (§1)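 Dosing by pin tool came one day after lung cancer cell lines were seeded in 1536-well plates, using either one drug or a fixed anchor-drug dose plus five library-drug doses (not always all listed) in √10 steps. After 5 days, nuclei were counted on 4× images. Relative viability is treated-well nuclei count divided by vehicle-well nuclei count, and values are medians of duplicate plates.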

[2] = compound: COc1cc(-c2nn([C@H]3CC[C@H](N4CCN(C(C)=O)CC4)CC3)c3ncnc(N)c23)ccc1NC(=O)c1cc2ccccc2n1C + C[C@]1(O)C[C@@H](c2nc(-c3ccc4ccc(-c5ccccc5)nc4c3)c3c(N)nccn32)C1 [Linsitinib] (partner 1 µM)
Procedure, shortened: as §1

[3] = compound: COc1cc(-c2nn([C@H]3CC[C@H](N4CCN(C(C)=O)CC4)CC3)c3ncnc(N)c23)ccc1NC(=O)c1cc2ccccc2n1C + C[C@@H](Oc1cc(-c2cnn(C3CCNCC3)c2)cnc1N)c1c(Cl)ccc(F)c1Cl [Crizotinib] (partner 1 µM)
Procedure, shortened: as §1

[4] = compound: CO[C@@H]1[C@H](N(C)C(=O)c2ccccc2)C[C@H]2O[C@]1(C)n1c3ccccc3c3c4c(c5c6ccccc6n2c5c31)C(=O)NC4 [Midostaurin] + CC(=O)c1c(C)c2cnc(Nc3ccc(N4CCNCC4)cn3)nc2n(C2CCCC2)c1=O [Palbociclib] (partner 0.5 µM)
Procedure, shortened: as §1

Midostaurin + Olaparib = compound: CO[C@@H]1[C@H](N(C)C(=O)c2ccccc2)C[C@H]2O[C@]1(C)n1c3ccccc3c3c4c(c5c6ccccc6n2c5c31)C(=O)NC4 [Midostaurin] + O=C(c1cc(Cc2n[nH]c(=O)c3ccccc23)ccc1F)N1CCN(C(=O)C2CC2)CC1 [Olaparib] (partner 8 µM)
Procedure, shortened: as §1

Cell Line: UMC-11
- relative viability ([1]; first compound 0.0128 µM): 0.89
- relative viability ([1]; first compound 0.04048 µM): 0.788
- relative viability ([1]; first compound 0.128 µM): 0.767
- relative viability ([1]; first compound 1.28 µM): 0.71
- relative viability ([2]; first compound 0.0128 µM): 0.961
- relative viability ([2]; first compound 0.04048 µM): 1.01
- relative viability ([2]; first compound 0.128 µM): 0.984
- relative viability ([2]; first compound 1.28 µM): 0.781
- relative viability ([3]; first compound 0.0128 µM): 0.638
- relative viability ([3]; first compound 0.04048 µM): 0.627
- relative viability ([3]; first compound 0.128 µM): 0.64
- relative viability ([3]; first compound 1.28 µM): 0.479
- relative viability ([4]; first compound 0.01 µM): 0.352
- relative viability ([4]; first compound 0.03162 µM): 0.391
- relative viability ([4]; first compound 0.1 µM): 0.364
- relative viability ([4]; first compound 0.3162 µM): 0.284
- relative viability (Midostaurin + Olaparib; first compound 0.01 µM): 0.354
- relative viability (Midostaurin + Olaparib; first compound 0.03162 µM): 0.387
- relative viability (Midostaurin + Olaparib; first compound 0.1 µM): 0.303
- relative viability (Midostaurin + Olaparib; first compound 0.3162 µM): 0.207
